Here are results for 14 molecules from paper PMC8594108, “In vitro growth inhibitory activity of Medicines for Malaria Venture pathogen box compounds against Leishmania aethiopica” (BMC Pharmacology & Toxicology, 2021).

For data set [1], the system named is intracellular L. aethiopica amastigotes. Kind of data set: Intracellular amastigote assay in mouse peritoneal macrophages. The format is cell-based, Leishmania aethiopica. The following applies: for IC50 / inhibition at 1 µM: Leishmania aethiopica, Peritoneal macrophage, 72 h; for IC50: mouse peritoneal macrophages, read-out: IC50 against intracellular L. aethiopica amastigotes; for inhibition at 1 µM: read-out: percentage of inhibition of intracellular amastigotes. Here is the method: Intracellular amastigote assay was conducted according to the method described elsewhere with modifications. Approximately 3 × 10^5 peritoneal macrophages were seeded in 24-well plates and allowed to adhere for 12 h at 33 °C in 5% CO2. Adherent cells were infected with late-stage L. aethiopica promastigotes (1:10 ratio) after washing out non-adherent cells twice. Only when > 70% of the macrophages present in the wells were infected was the infection deemed sufficient. The medium was then replaced with a fresh complete medium with or without test compounds and incubated for 72 h at 33 °C and 5% CO2. After 72 h of incubation, slides were washed with prewarmed PBS, fixed with methanol, and stained with Giemsa (10%) for 15 min and observed under 100x oil immersion objective microscope [Olympus]. Amphotericin B and pentamidine were used as reference drugs against test samples.
The IC50 was determined by counting amastigotes in (50) macrophages in duplicate cultures. In all assays except for haemolytic and THP- 1, test compounds were diluted in a two-fold dose-titration range (0.03 to 1 μM) in triplicate. Parasite burden was calculated using the infection index as shown below. Infection index=Number of infected macrophages/Total macrophage countedxTotal number of amastigotes in infected macrophages/Total infected macrophages counted

The subject of data set [2] is L. aethiopica promastigotes. Kind of data set: Primary antipromastigote assay (resazurin based). The format is cell-based. The following applies: Leishmania aethiopica, 72 h; for IC50: dose titration 0.03 to 1 μM, average of two independent experiments in triplicate, read-out: IC50 (95% CI) against Leishmania aethiopica promastigotes. The protocol:
Test compounds were diluted in 96-well microculture plate containing 100 μL complete M199 medium. […] The Parasite density was kept constant at 1 × 10^5 per well. After 68 h of incubation, 10 μL of fluorochrome resazurin solution (Sigma-Aldrich, Co., St. […] The percentage of inhibition (%) was calculated for each concentration using the following formula: Inhibition%=100−Fluorescence in duplicate drug wells-Fluorescence in blank wells/Fluorescence control wells−Fluorescence in blank wells∗100

Data set [3] is described as follows: THP-1 cell cytotoxicity assay (resazurin). Format: cell-based. The conditions noted are these: human. The protocol:
(§1) Approximately 2 × 10^5 THP-1 cell suspension were added to 96-well microplate containing serially diluted 50 μL test compounds. Microplates were then incubated for 68 h at 37 °C in a 5% CO2 air mixture. Cell viability was determined with the resazurin- based fluorescence assay measured after a total incubation time of 72 h. The estimated median cell cytotoxicity (CC50) was calculated for each concentration using the formula: Cell viability%=Fluorescence in duplicate drug wells-Fluorescence blank wells/Fluorescence in control wells−Fluorescence blank wells∗100 The selectivity index of compounds was calculated from the ratio of the CC50 value determined in THP1 cells to the IC50 value determined from the dose-response curves in promastigote and amastigote assay using the following formula. Selectivity indexSI=CC50THP1cells/IC50promastigotes or amstigotes

The conditions of data set [4]: ref NCBI PubChem [29]-[39]; cited from earlier work.
A further data set can be described thus: Haemolysis test. Format: cell-based, sheep. The following applies: sheep. Here is the method:
(§2) The mixture was then centrifuged at 1000 g for 10 min. 75 μL of the resulting supernatant were transferred to 96-well plates and the absorbance readings obtained at 540 nm using Victor3 Multilabel Counter (PerkinElmer, Waltham, USA).

A further data set has as its system THP-1 cells. Kind of data set: THP-1 cell cytotoxicity assay (resazurin). The format is cell-based. The protocol:
as §1

The subject of data set [5] is sheep red blood cells (RBCs). Briefly: Haemolysis test. Format: cell-based. The following applies: at 25 μM. Here is the method: as §2
Another data set relates to MRC-5 cells. Also noted: method as in MMV (MMV PB website). The following applies: ref MMV (MMV PB website); read-out: IC50 against MRC-5 cells; cited from earlier work.
The test system of another data set is PMM cells. Also noted: method as in MMV (MMV PB website). The following applies: ref MMV (MMV PB website); read-out: IC50 against PMM cells; cited from earlier work.
Another data set concerns L. infantum. Also noted: method as in MMV biological data. The following applies: ref MMV biological data; cited from earlier work.
[6] abbreviates: hit map sheet with colour categories, negative values shown as 0.00, read-out: Percentage of inhibition against Leishmania aethiopica promastigotes.
Where [7] appears, read: hit map sheet without colour categories, negative values kept, read-out: Percentage of inhibition against Leishmania aethiopica promastigotes.
Where [8] appears, read: THP-1 cells, 72 h, read-out: Cytotoxicity, CC50, THP-1.
[9] abbreviates: sheep red blood cells (2% blood suspension), 1.56–25 μM, 2 h, 37 °C, read-out: Cytotoxicity, CC50, Sheep RBC.

“And” between values parts separate entries of the source, which are not always exact repeats. Equal values may be shown once. Read-outs that look alike come from different tables or passages of the source. Some results are limits rather than exact numbers.

For the molecule `Cc1cccc(C(=O)Nc2ccnc(N(C)C3CCN(CC(C)C)CC3)c2)c1` [MMV024829], the IC50 in [1] turned out to be 0.411 ± 0.0566 µM; in data set [2] it was 0.356 µM. The inhibition at 1 µM in [1] was 69.6 ± 4.1%; in data set [2] (setting [6]), 82.4%; in [2] (setting [7]) it was 82.4%. The same molecule displayed a CC50 at 72 h in [3] above 25 µM. The “R3 H+ bond receiver” value in data set [4] is on record as 4. Besides, the CC50 at 2 h in the data set “Haemolysis test” was above 25 µM.
`N=C(N)Nc1ccc(-c2ccc(-c3ccc(NC(=N)N)cc3Cl)o2)c(Cl)c1` [MMV688179, 2,5-Bis (2-chloro-4-guanidinophenyl) furan]: the inhibition at 1 µM in data set [2] (setting [6]) was determined as 80.6%. For the same molecule, the inhibition at 1 µM in data set [2] (setting [7]) was determined as 80.6%. In addition, the IC50 in data set [2] is 0.356 µM. The CC50 at 72 h in data set [3] (setting [8]) was above 25 µM. Moreover, in data set [4], the “R3 H+ bond receiver” value is on record as 3 and the “R6 Polar surface area” value is reported as 142 A^2. Further, the CC50 at 2 h in “Haemolysis test” (setting [9]) was above 25 µM.
`CO[C@@H]1CN(c2ccc(C#CC3(O)CN4CCC3CC4)c(Cc3ccccc3)n2)C[C@H]1O` (stereo partly drawn) [MMV688415]: the IC50 in [1] turned out to be 0.374 ± 0.0454 µM; in [2] it was 0.145 µM. The figures for the inhibition at 1 µM in data set [1] and in data set [2] (setting [6]) were 68.6 ± 6.6% and 98.7%, respectively. Further, in [3] (setting [8]), the CC50 at 72 h was above 25 µM. For the same molecule, the “CC20 on THP-1 cell line” value in the data set on THP-1 cells (72 h) turned out to be 25 µM. Moreover, the “R3 H+ bond receiver” value in data set [4] is reported as 6. Besides, the CC50 at 2 h in “Haemolysis test” (setting [9]) was above 25 µM. Further, the “hemolytic activity on sheep RBC” value in [5] is recorded as 5.3%.
`CN1CCC(NCc2cccc(-c3ccc(S(=O)(=O)NCc4ccccc4)cc3)c2)CC1` [MMV022029]: the “activities against the intracellular amastigotes (in words)” value in data set [1] is “low”. Also, in data set [2] (setting [6]), the inhibition at 1 µM amounted to 88%. In addition, the inhibition at 1 µM in [2] (setting [7]) is 88%. For the same molecule, the IC50 in data set [2] is 0.305 µM. Further, the CC50 at 72 h in [3] (setting [8]) is above 25 µM. Further, in [4], the “R3 H+ bond receiver” value is 5 and the “R6 Polar surface area” value is reported as 69.8 A^2. For the same molecule, the CC50 at 2 h in “Haemolysis test” (setting [9]) was above 25 µM.
In the case of `O=C(Nc1ccc(N2CCNCC2)cc1)c1ccn2ncc(-c3cccc(Cl)c3)c2n1` [MMV022478], the figures for the IC50 in data set [1] and in [2] were 0.435 ± 0.0492 µM and 0.448 µM, respectively. The values for the inhibition at 1 µM in data set [1], in data set [2] (setting [6]) and in data set [2] (setting [7]) were 72.4 ± 5.6%, 98.9% and 98.9%, respectively. Further, the CC50 at 72 h in data set [3] (setting [8]) is above 25 µM. Also, the “R3 H+ bond receiver” value in data set [4] is 5. The “R6 Polar surface area” value in data set [4] was 74.6 A^2. In addition, the CC50 at 2 h in “Haemolysis test” (setting [9]) is above 25 µM.
`COc1cncc(-c2cncc(N3CCN(c4ccncc4)CC3)n2)c1` [MMV085071]: the IC50 came to 0.277 ± 0.0372 µM in data set [1] and 0.283 µM in data set [2]. Moreover, the values for the inhibition at 1 µM in [1], in data set [2] (setting [6]) and in data set [2] (setting [7]) were 80.5 ± 4.2%, 76.1% and 76.1%, respectively. In [3] (setting [8]), the CC50 at 72 h was above 25 µM. Also, in data set [4], the “R3 H+ bond receiver” value is on record as 7. Also, the “R6 Polar surface area” value in [4] is on record as 67.3 A^2. Moreover, the CC50 at 2 h in the data set “Haemolysis test” (setting [9]) is above 25 µM.
`Clc1cccc(C(c2ccc(CN3CCNCC3)cc2)n2ccnc2)c1` (stereo not drawn) [MMV663250]: in [2] (setting [6]), the inhibition at 1 µM is 81%. Besides, the inhibition at 1 µM in data set [2] (setting [7]) came out at 81%. In data set [2], the IC50 stood at 0.326 µM. The CC50 at 72 h in data set [3] (setting [8]) is above 25 µM. In [4], the “R3 H+ bond receiver” value is 3 and the “R6 Polar surface area” value is recorded as 33.1 A^2. Further, the CC50 at 2 h in the data set “Haemolysis test” (setting [9]) was above 25 µM.
Take `CN1CCN(CCCOc2ncc(Nc3ncc(-c4ccc(C(F)(F)F)c(F)c4)nc3C(N)=O)cn2)CC1` [MMV687812]: in [2] (setting [6]), the inhibition at 1 µM worked out at 72.9%. For the same molecule, the inhibition at 1 µM in data set [2] (setting [7]) worked out at 72.9%. In addition, the 50% inhibitory concentration (IC50) in data set [2] came out at 0.39 µM. In data set [3] (setting [8]), the CC50 at 72 h is above 25 µM. Further, in data set [4], the “R3 H+ bond receiver” value was 13 and the “R6 Polar surface area” value is 122 A^2. In addition, the CC50 at 2 h in “Haemolysis test” (setting [9]) is above 25 µM.
As to `CCCCCCCCCCCCCCCCOP(=O)([O-])OCC[N+](C)(C)C` [Miltefosine, reference compound], the inhibition at 1 µM in data set [2] (setting [6]) and in data set [2] (setting [7]) was 35.3% in each case.
Take `O=C(Nc1cccc(Cl)c1)c1cnc(N2CCN(c3ccncc3)CC2)c(Cl)c1` [MMV024406]: in [1], the “activities against the intracellular amastigotes (in words)” value is “low”, the IC50 was found to be 0.9 ± 0.0659 µM and the inhibition at 1 µM came to 55.6 ± 5.5%. The inhibition at 1 µM in data set [2] (setting [6]) was 97.3%. Moreover, the inhibition at 1 µM in [2] (setting [7]) was 97.3%. Also, in data set [2], the IC50 turned out to be 0.024 µM. In addition, the CC50 at 72 h in [3] (setting [8]) is above 25 µM. Also, in data set [4], the “R3 H+ bond receiver” value is reported as 5 and the “R6 Polar surface area” value is given as 61.4 A^2. Also, in the data set “Haemolysis test” (setting [9]), the CC50 at 2 h was above 25 µM.
Consider `N=C(N)c1ccc(OCCCCCOc2ccc(C(=N)N)cc2)cc1` [Pentamidine, reference compound], for which the IC50 came out at 1.6 ± 0.09 µM in data set [1] and 1.31 µM in data set [2]. Further, the inhibition at 1 µM in data set [2] (setting [6]) and in [2] (setting [7]) was 64.7% in each case.
Regarding `C[C@@H]1[C@H](O)[C@@H](C)/C=C/C=C/C=C/C=C/C=C/C=C/C=C/[C@H](O[C@@H]2O[C@H](C)[C@@H](O)[C@H](N)[C@@H]2O)C[C@@H]2O[C@](O)(C[C@@H](O)C[C@@H](O)[C@H](O)CC[C@@H](O)C[C@@H](O)CC(=O)O[C@H]1C)C[C@H](O)[C@H]2C(=O)O` [Amphotericin B, reference compound], the IC50 in data set [1] was 0.277 ± 0.0079 µM. For the same molecule, the inhibition at 1 µM in data set [2] (setting [6]) and in [2] (setting [7]) was 63% in each case.
As for `CN1CCCC1CCO[C@](C)(c1ccccc1)c1ccc(Cl)cc1` (stereo partly drawn) [MMV637229], in data set [4], the “R3 H+ bond receiver” value was 2.
In the case of `COc1ccc(Oc2ccc([C@@H](C)N(C)c3ncc4c(N)nc(N)nc4n3)cc2)cc1` [MMV690102], the IC50 in the data set with MRC-5 cells was 5.4 µM; in the data set on PMM cells it was 4 µM; in data set [1], 0.076 ± 0.0181 µM; in [2] it was 0.158 µM; with L. infantum, 0.003 µM. The inhibition at 1 µM in data set [1] is 90.7 ± 5.3%; in [2] (setting [6]) it was 95%. Moreover, in the data set with THP-1 cells (72 h, extrapolated result), the “Cytotoxicity, CC50 (extrapolated IC50), THP-1” value was 36.5 µM and 36.55 µM and 36 µM. Moreover, the “Selectivity index (SI)” value in the data set with THP-1 cells (CC50 THP-1 cells / IC50 promastigotes or amastigotes) stood at 478.4. In data set [4], the “R3 H+ bond receiver” value is 9. For the same molecule, in data set [4], the “R6 Polar surface area” value is 125 A^2. Moreover, the CC50 at 2 h in “Haemolysis test” (setting [9]) was above 25 µM.
